Laboratory results: publication PMC11585924, “Direct measurements of neurosteroid binding to specific sites on GABAA receptors” (British journal of pharmacology, 2024)

Key:
ELIC-α1^W246LGABAAR = ELIC-α1^W246LGABAAR (Homo sapiens, UniProt P14867, W273L); assay: biochemical; format: binding
Experimental: ELIC-α1GABAAR was expressed and purified according to a previously published protocol ([Q. Chen et al., 2018]). The purified protein was aliquoted and stored at −80°C. Mutagenesis was performed as described in previous reports ([Kinde et al., 2016]) by oligonucleotide-directed mutagenesis using Phu polymerase (Thermo Fisher Scientific, Waltham, MA, USA) verified by sequencing. ELIC-α1GABAAR was expressed in OverExpress™ C43(D3) E. coli, derived from Rosetta™(DE3) cells under double selection with kanamycin and chloramphenicol for ELIC-α1GABAAR.
One hundred microlitres of purified ELIC-α1GABAAR (0.3 μM in Buffer A + 0.015% DDM) was transferred into a 50-μl window quartz cuvette (Starna Cells, Atascadero, CA, USA), which was placed in a cuvette holder maintained at 4°C. […] Two microlitres of NaI (AK Scientific, Union City, CA, USA; 5-M stock prepared in 0.1-Mm sodium hydrosulfite [Sigma-Aldrich, St. Louis, MO, USA]) was added to the protein (final concentration = 100 mM) and incubated for 10 min to reduce the fluorescence emission from hydrophilic tryptophans. To measure the concentration–dependent effects of NS on tryptophan fluorescence, 1 μl of NS from each 100× stock solution was sequentially added to the NaI-equilibrated protein and thoroughly mixed to achieve concentrations from 0.01 to 50 μM. […]

α1β3 GABAA receptors = target: T1, α1β3 GABAA receptors (Homo sapiens, UniProt P14867+P28472); assay: Two-electrode voltage clamp of GABA-elicited currents in Xenopus oocytes; format: cell-based; settings: low GABA; wild-type α1β3
T1 construct: expressed in transfected cells; host or cells: Xenopus laevis oocytes, cRNA injected 5:1 (α1:β3)
T1 sequence (P14867 28-456): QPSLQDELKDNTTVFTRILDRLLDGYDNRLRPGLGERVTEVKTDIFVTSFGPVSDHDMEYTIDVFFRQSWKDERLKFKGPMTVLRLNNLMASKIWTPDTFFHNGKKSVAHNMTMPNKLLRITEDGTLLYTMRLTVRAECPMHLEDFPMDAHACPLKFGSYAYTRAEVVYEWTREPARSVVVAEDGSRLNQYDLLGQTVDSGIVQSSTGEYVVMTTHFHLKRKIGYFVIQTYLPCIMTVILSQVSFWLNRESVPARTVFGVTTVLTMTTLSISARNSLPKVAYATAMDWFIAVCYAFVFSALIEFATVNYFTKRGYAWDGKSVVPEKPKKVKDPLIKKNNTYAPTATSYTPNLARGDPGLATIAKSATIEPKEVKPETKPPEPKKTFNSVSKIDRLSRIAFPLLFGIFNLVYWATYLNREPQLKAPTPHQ
T1 sequence (P28472 26-473): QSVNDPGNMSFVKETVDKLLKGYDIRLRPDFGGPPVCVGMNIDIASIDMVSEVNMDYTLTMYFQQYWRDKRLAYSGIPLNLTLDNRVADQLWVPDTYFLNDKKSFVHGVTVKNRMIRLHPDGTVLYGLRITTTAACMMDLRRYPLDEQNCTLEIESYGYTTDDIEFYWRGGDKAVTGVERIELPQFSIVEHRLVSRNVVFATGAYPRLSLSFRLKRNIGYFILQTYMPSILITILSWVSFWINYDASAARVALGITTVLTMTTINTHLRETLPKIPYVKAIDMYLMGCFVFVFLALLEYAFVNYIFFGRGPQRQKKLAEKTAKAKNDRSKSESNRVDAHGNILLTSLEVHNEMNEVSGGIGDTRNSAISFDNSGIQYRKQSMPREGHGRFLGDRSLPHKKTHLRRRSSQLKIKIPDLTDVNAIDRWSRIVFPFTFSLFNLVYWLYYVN
Experimental: Receptor expression and electrophysiological recordings were conducted as described in detail previously ([Sugasawa et al., 2020]). In brief, α1β3 GABAA receptors were expressed in oocytes from the African clawed frog (X. laevis). The wild-type α1 and β3 subunits were of human origin (Genbank accession numbers NM_000806.5 and NM_000814.5, respectively). The α1 clone containing the Q-to-L mutation to the classic neurosteroid binding site ([Hosie et al., 2006]) was of rat origin. (The glutamine residue in ELIC-α1GABAAR is Q242, whereas the corresponding residue in rat α1 is Q241. For simplicity, the residue is referred to as Q242 for both rat and ELIC-α1GABAAR.) The oocytes were purchased as quarter ovaries from Xenopus1 (Dexter, MI, USA). Following digestion in 2% w/v (mg·ml^−1) collagenase A, the oocytes were injected with a total of 12 ng cRNA per oocyte in a 5:1 ratio (α1:β3) and incubated at 15°C for 2–3 days prior to electrophysiological recordings in ND96 (96-mM NaCl, 2-mM KCl, 1.8-mM CaCl2, 1-mM MgCl2, 5-mM HEPES; pH 7.4) supplemented with 100 U·ml^−1 penicillin and 100 μg·ml^−1 streptomycin.
Electrophysiological recordings were conducted at ≈22°C using standard two-electrode voltage clamp. The voltage and current electrodes (G120F-4, OD = 1.20 mm, ID = 0.69 mm; Warner Instruments, Hamden, CT, USA) were filled with 3-M KCl and had resistances of 0.3–1 MΩ. The oocytes were clamped at −60 mV. The chamber (RC-1Z; Warner Instruments) was perfused with ND96 at 5–8 ml·min^−1. Solutions were gravity-applied. The current responses were amplified with an Axoclamp 900A (Molecular Devices, San Jose, CA, USA) or OC-725C amplifier (Warner Instruments), digitized with a Digidata 1200 series digitizer (Molecular Devices) and stored on PC hard drive using pClamp (Molecular Devices; RRID:SCR_011323). Current amplitudes were determined using Clampfit (Molecular Devices).
A standard experiment consisted of a several-minute long applications of GABA followed immediately by a co-application of GABA + modulator and a wash in GABA. For normalization purposes, each cell was exposed to the combination of saturating (1-mM) GABA + 50-μM propofol, assumed to fully activate all receptors in the cell ([Eaton et al., 2016]).

ELIC-α1^W246LGABAAR, sequence (P14867 other isoform, or with tags, fused parts or gaps W273L): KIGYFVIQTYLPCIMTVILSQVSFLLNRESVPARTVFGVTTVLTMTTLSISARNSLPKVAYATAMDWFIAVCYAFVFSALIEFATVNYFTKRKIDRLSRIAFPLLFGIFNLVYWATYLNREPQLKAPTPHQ
ELIC-α1^W246LGABAAR, sequence (P0C7B7 1-198, further chain): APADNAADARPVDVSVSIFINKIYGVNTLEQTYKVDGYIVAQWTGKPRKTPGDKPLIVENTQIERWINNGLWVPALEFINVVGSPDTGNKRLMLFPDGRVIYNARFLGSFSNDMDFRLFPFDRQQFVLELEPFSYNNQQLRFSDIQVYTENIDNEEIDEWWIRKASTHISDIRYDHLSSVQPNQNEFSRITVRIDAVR

CC(=O)[C@H]1CC[C@H]2[C@@H]3CC[C@H]4C[C@@H](O)CC[C@]4(C)[C@H]3CC[C@]12C [Epi-AlloP, epi-allopregnanolone] was tested, and the IC50 (ELIC-α1^W246LGABAAR) was 340 ± 130 nM and the “potentiation of GABA-elicited currents” value (α1β3 GABAA receptors) was “do not”.
